Test results taken from PubChem BioAssay AID1259407 (Chemical Carcinogenesis Research Information System (CCRIS), 2018).
Active and inactive are the calls of the source. The rule behind the calls is not given here.

Test system: CCRIS mutagenicity, Ames/micronucleus/aberration tests
Experiment: CCRIS mutagenicity studies

Cc1ccc(N)cc1N
mutagenic call (End Point: IN VITRO CHROMOSOMAL ABERRATIONS, Test System: CHL CELLS, Metabolic Activation: NONE): active; positive (structural changes) | mutagenic call (End Point: IN VITRO CHROMOSOMAL ABERRATIONS, Test System: CHL CELLS, Metabolic Activation: RAT, LIVER, S-9, SODIUM PHENOBARBITAL AND 5,6-BENZOFLAVONE): active; positive (structural changes) | mutagenic call (End Point: IN VITRO CHROMOSOMAL ABERRATIONS, Test System: CHO-LB CELLS, Metabolic Activation: NONE): active; positive | mutagenic call (End Point: IN VITRO CHROMOSOMAL ABERRATIONS, Test System: CHO-LB CELLS, Metabolic Activation: RAT, LIVER, S-9, AROCLOR 1254): active; positive | mutagenic call (End Point: IN VITRO CHROMOSOMAL ABERRATIONS, Test System: CHO-WBL CELLS, Metabolic Activation: NONE): active; positive | mutagenic call (End Point: IN VITRO MICRONUCLEUS, Test System: HUMAN HEPATOMA HEP G2 CELLS, Metabolic Activation: NONE): active; positive | mutagenic call (Test System: AMES SALMONELLA TYPHIMURIUM, Strain/Indicator: TA97, Metabolic Activation: RAT, LIVER, S-9, AROCLOR 1254 (4 OR 10%), Method: STANDARD PLATE): inactive; negative | mutagenic call (Test System: AMES SALMONELLA TYPHIMURIUM, Strain/Indicator: TA98(1,8-DNP6), Metabolic Activation: PLANT CELLS, Method: PREINCUBATION): inactive; negative | mutagenic call (Test System: AMES SALMONELLA TYPHIMURIUM, Strain/Indicator: TA98(1,8-DNP6), Metabolic Activation: RAT, LIVER, S-9, AROCLOR 1254, Method: STANDARD PLATE): inactive; negative | mutagenic call (Test System: AMES SALMONELLA TYPHIMURIUM, Strain/Indicator: TA98(PYG219), Metabolic Activation: RAT, LIVER, S-9, AROCLOR 1254, Method: STANDARD PLATE): active; positive | mutagenic call (Test System: AMES SALMONELLA TYPHIMURIUM, Strain/Indicator: TA98, Metabolic Activation: MOUSE, LIVER, S-9, PHENOBARBITONE AND BETA-NAPHTHOFLAVONE, Method: STANDARD PLATE): active; positive | mutagenic call (Test System: AMES SALMONELLA TYPHIMURIUM, Strain/Indicator: TA98, Metabolic Activation: NONE, Method: MICROSUSPENSION): inactive; negative | mutagenic call (Test System: AMES SALMONELLA TYPHIMURIUM, Strain/Indicator: TA98, Metabolic Activation: NONE, Method: SUSPENSION/PLATE): inactive; negative | mutagenic call (Test System: AMES SALMONELLA TYPHIMURIUM, Strain/Indicator: TA98, Metabolic Activation: PLANT CELLS, Method: PREINCUBATION): inactive; negative | mutagenic call (Test System: AMES SALMONELLA TYPHIMURIUM, Strain/Indicator: TA98, Metabolic Activation: RAT LIVER CYTOSOL, AROCLOR 1254, Method: PREINCUBATION): inactive; negative | mutagenic call (Test System: AMES SALMONELLA TYPHIMURIUM, Strain/Indicator: TA98, Metabolic Activation: RAT LIVER MICROSOMES, AROCLOR 1254, Method: PREINCUBATION): active; positive | mutagenic call (Test System: AMES SALMONELLA TYPHIMURIUM, Strain/Indicator: TA98, Metabolic Activation: RAT LIVER S-9, AROCLOR 1254, Method: MICROSUSPENSION): active; positive | mutagenic call (Test System: AMES SALMONELLA TYPHIMURIUM, Strain/Indicator: TA98, Metabolic Activation: RAT LIVER S-9, PHENOBARBITAL AND BETA-NAPHTHOFLAVONE, Method: PREINCUBATION): active; positive | mutagenic call (Test System: AMES SALMONELLA TYPHIMURIUM, Strain/Indicator: TA98, Metabolic Activation: RAT, LIVER, HEPATOCYTES, AROCLOR 1254, Method: STANDARD PLATE): active; positive | mutagenic call (Test System: AMES SALMONELLA TYPHIMURIUM, Strain/Indicator: TA98, Metabolic Activation: RAT, LIVER, MICROSOMES, AROCLOR 1254, Method: PREINCUBATION): active; positive | mutagenic call (Test System: AMES SALMONELLA TYPHIMURIUM, Strain/Indicator: TA98, Metabolic Activation: RAT, LIVER, MICROSOMES, BENZO[A]PYRENE, Method: PREINCUBATION): active; positive | mutagenic call (Test System: AMES SALMONELLA TYPHIMURIUM, Strain/Indicator: TA98, Metabolic Activation: RAT, LIVER, MICROSOMES, CLOFIBRATE, Method: PREINCUBATION): inactive; negative | mutagenic call (Test System: AMES SALMONELLA TYPHIMURIUM, Strain/Indicator: TA98, Metabolic Activation: RAT, LIVER, MICROSOMES, DEXAMETHASONE, Method: PREINCUBATION): inactive; negative | mutagenic call (Test System: AMES SALMONELLA TYPHIMURIUM, Strain/Indicator: TA98, Metabolic Activation: RAT, LIVER, MICROSOMES, DIAMINOTOLUENE, Method: PREINCUBATION): active; positive | mutagenic call (Test System: AMES SALMONELLA TYPHIMURIUM, Strain/Indicator: TA98, Metabolic Activation: RAT, LIVER, MICROSOMES, ISONIAZID, Method: PREINCUBATION): inactive; negative | mutagenic call (Test System: AMES SALMONELLA TYPHIMURIUM, Strain/Indicator: TA98, Metabolic Activation: RAT, LIVER, MICROSOMES, PHENOBARBITAL, Method: PREINCUBATION): inactive; negative | mutagenic call (Test System: AMES SALMONELLA TYPHIMURIUM, Strain/Indicator: TA98, Metabolic Activation: RAT, LIVER, MICROSOMES, Method: PREINCUBATION): inactive; negative | mutagenic call (Test System: AMES SALMONELLA TYPHIMURIUM, Strain/Indicator: TA98, Metabolic Activation: RAT, LIVER, S-9, AROCLOR 1254, Method: STANDARD PLATE): active; positive | mutagenic call (Test System: AMES SALMONELLA TYPHIMURIUM, Strain/Indicator: TA98, Metabolic Activation: RAT, LIVER, S-9, AROCLOR, Method: PREINCUBATION): active; positive | mutagenic call (Test System: AMES SALMONELLA TYPHIMURIUM, Strain/Indicator: TA98, Metabolic Activation: RAT, LIVER, S-9, PCB, Method: PREINCUBATION): active; positive | mutagenic call (Test System: AMES SALMONELLA TYPHIMURIUM, Strain/Indicator: TA98, Metabolic Activation: RAT, LIVER, S-9, PHENOBARBITAL AND 5,6-BENZOFLAVONE, Method: PREINCUBATION): active; positive | mutagenic call (Test System: AMES SALMONELLA TYPHIMURIUM, Strain/Indicator: TA98, Metabolic Activation: RAT, LIVER, S-9, PHENOBARBITAL AND 5,6-BENZOFLAVONE, Method: SUSPENSION/PLATE): active; positive | mutagenic call (Test System: AMES SALMONELLA TYPHIMURIUM, Strain/Indicator: TA100, Metabolic Activation: NONE, Method: MICROSUSPENSION): inactive; negative | mutagenic call (Test System: AMES SALMONELLA TYPHIMURIUM, Strain/Indicator: TA100, Metabolic Activation: NONE, Method: PREINCUBATION): inactive; negative | mutagenic call (Test System: AMES SALMONELLA TYPHIMURIUM, Strain/Indicator: TA100, Metabolic Activation: NONE, Method: SUSPENSION/PLATE): inactive; negative | mutagenic call (Test System: AMES SALMONELLA TYPHIMURIUM, Strain/Indicator: TA100, Metabolic Activation: RAT LIVER S-9, AROCLOR 1254, Method: MICROSUSPENSION): inactive; negative | mutagenic call (Test System: AMES SALMONELLA TYPHIMURIUM, Strain/Indicator: TA100, Metabolic Activation: RAT LIVER S-9, PHENOBARBITAL AND BETA-NAPHTHOFLAVONE, Method: PREINCUBATION): active; positive | mutagenic call (Test System: AMES SALMONELLA TYPHIMURIUM, Strain/Indicator: TA100, Metabolic Activation: RAT, LIVER, S-9, AROCLOR 1254, Method: STANDARD PLATE): active; positive | mutagenic call (Test System: AMES SALMONELLA TYPHIMURIUM, Strain/Indicator: TA100, Metabolic Activation: RAT, LIVER, S-9, PCB, Method: PREINCUBATION): active; positive | mutagenic call (Test System: AMES SALMONELLA TYPHIMURIUM, Strain/Indicator: TA100, Metabolic Activation: RAT, LIVER, S-9, PHENOBARBITAL AND 5,6-BENZOFLAVONE, Method: PREINCUBATION): active; positive | mutagenic call (Test System: AMES SALMONELLA TYPHIMURIUM, Strain/Indicator: TA100, Metabolic Activation: RAT, LIVER, S-9, PHENOBARBITAL AND 5,6-BENZOFLAVONE, Method: SUSPENSION/PLATE): active; positive | mutagenic call (Test System: AMES SALMONELLA TYPHIMURIUM, Strain/Indicator: TA1535, Metabolic Activation: NONE, Method: PREINCUBATION): inactive; negative | mutagenic call (Test System: AMES SALMONELLA TYPHIMURIUM, Strain/Indicator: TA1535, Metabolic Activation: RAT LIVER S-9, PHENOBARBITAL AND BETA-NAPHTHOFLAVONE, Method: PREINCUBATION): inactive; negative | mutagenic call (Test System: AMES SALMONELLA TYPHIMURIUM, Strain/Indicator: TA1537, Metabolic Activation: NONE, Method: PREINCUBATION): inactive; negative | mutagenic call (Test System: AMES SALMONELLA TYPHIMURIUM, Strain/Indicator: TA1537, Metabolic Activation: RAT LIVER S-9, PHENOBARBITAL AND BETA-NAPHTHOFLAVONE, Method: PREINCUBATION): active; positive | mutagenic call (Test System: AMES SALMONELLA TYPHIMURIUM, Strain/Indicator: TA1537, Metabolic Activation: RAT, LIVER, S-9, AROCLOR 1254 (4 OR 10%), Method: STANDARD PLATE): inactive; negative | mutagenic call (Test System: AMES SALMONELLA TYPHIMURIUM, Strain/Indicator: TA1538, Metabolic Activation: RAT, LIVER, S-9, AROCLOR 1254 (4 OR 10%), Method: STANDARD PLATE): active; positive | mutagenic call (Test System: AMES SALMONELLA TYPHIMURIUM, Strain/Indicator: TA1538, Metabolic Activation: RAT, LIVER, S-9, AROCLOR 1254, Method: STANDARD PLATE): active; positive | mutagenic call (Test System: AMES SALMONELLA TYPHIMURIUM, Strain/Indicator: YG1024, Metabolic Activation: PLANT CELLS, Method: PREINCUBATION): active; positive | mutagenic call (Test System: CHINESE HAMSTER V-79, Strain/Indicator: V-79/6-THIOGUANINE, Metabolic Activation: NONE, Method: SUSPENSION/PLATE): inactive; negative | mutagenic call (Test System: CHINESE HAMSTER V-79, Strain/Indicator: V-79/6-THIOGUANINE, Metabolic Activation: RAT, LIVER, S-9, PHENOBARBITAL AND BETA-NAPHTHOFLAVONE, Method: SUSPENSION/PLATE): inactive; negative | mutagenic call (Test System: E.COLI, Strain/Indicator: WP2UVRA, Metabolic Activation: NONE, Method: PREINCUBATION): inactive; negative | mutagenic call (Test System: E.COLI, Strain/Indicator: WP2UVRA, Metabolic Activation: RAT LIVER S-9, PHENOBARBITAL AND BETA-NAPHTHOFLAVONE, Method: PREINCUBATION): inactive; negative | mutagenic call (Test System: UDS HUMAN HEPATOMA HEPG2 CELLS, Strain/Indicator: THY INCORP, Metabolic Activation: NONE, Method: AUTORADIOGRAPHY): active; positive | mutagenic call (Test System: UDS RAT HEPATOCYTES, Strain/Indicator: BROMODEOXYURIDINE INCORP, Metabolic Activation: NONE, Method: FLOW CYTOMETRIC ANALYSIS): active; positive | mutagenic call (Test System: UDS RAT HEPATOCYTES, Strain/Indicator: THY INCORP, Metabolic Activation: NONE, Method: AUTORADIOGRAPHY): active; positive
